Laboratory results published in patent US20180289678A1, “PHARMACEUTICAL COMPOSITION, PHARMACEUTICAL DOSAGE FORM, PROCESS FOR THEIR PREPARATION, METHODS FOR TREATING AND USES THEREOF” (Boehringer Ingelheim International GmbH, priority 2009, published 2018).
Read-outs that look alike come from different tables or passages of the source.

Test: Pharmacokinetic profile in fasting humans, ranges over Studies .1 to .5
Assay type: in vivo
Settings: human, plasma, oral
Method: 5. Pharmacokinetic Parameters
The pharmacokinetic parameters of pharmaceutical compositions and pharmaceutical dosage forms are assessed in healthy volunteer and patient populations. In the studies shown below, the participants fasted on the day of sampling, unless as otherwise stated (see for example study .3). The active substance in the studies below is the compound (I.9), preferably in the crystalline form (I.9X), and the dose of active ingredient is indicated in mg.
For the quantification of plasma concentrations of the active ingredient, 2.7 mL of blood was collected and transferred into an EDTA (ethylendiaminetetraacetic acid)-anticoagulant blood drawing tube. The EDTA-anticoagulated blood samples were centrifuged immediately after collection. Centrifugation lasted for about 10 minutes (at about 2,000×gf to 4,000×gf) at 4-8° C. or within 30 minutes while stored on ice. Concentrations of active substance in EDTA human plasma samples were quantitated using a HPLC/MS/MS method. The assay method comprised a solid phase supported liquid-liquid extraction of human plasma coupled with HPLC/MS/MS determination of the extracted samples. The HPLC/MS/MS assay was validated for the range of 1.11 to 1110 nM in human plasma.
Study .1: Single dose study in a healthy volunteer population of N=72. Healthy volunteers were administered tablets as described in Example 10 (section Examples of formulations).
Study .2: Multiple rising dose trial in a diabetic patient population of N=48, once daily administration for 8 days. Patients were administered tablets as described in Example 10 (section Examples of formulations).
Study .3: Single dose, cross-over, food effect study in a healthy volunteer population of N=14. Healthy volunteers were administered tablets as described in Example 10 (section Examples of formulations).
Study .4: 4-week treatment of a diabetic patient population of N=78, once daily administration for 4 weeks. Patients were administered tablets as described in Example 10 (section Examples of formulations).
Study .5: Single dose study in a healthy volunteer population of N=48 (Japanese volunteers). Healthy volunteers were administered tablets as described in Example 11 (section Examples of formulations).
AUC0-inf:area under the concentration-time curve of the analyte in plasma over the time interval from 0 extrapolated to infinity.
Cmax: maximum concentration of the analyte in plasma.
Tmax: time from dosing to maximum concentration.
AUCT,SS:area under the concentration-time curve of the analyte in plasma over the time interval from 0 to 24 h at steady-state.
Cmax,ss:maximum concentration of the analyte in plasma at steady state over a uniform dosing interval.
tmax,ss:time from dosing to maximum concentration at steady state.

An AUC (2.5 mg, dose of 2.5 mg, read-out: AUC) of 0.283 to 0.677 µM·h, a Cmax (2.5 mg, dose of 2.5 mg, read-out: Cmax) of 40.3 to 96.3 nM and an AUC (2.5 mg, dose of 2.5 mg, read-out: geometric mean AUC) of 0.394 to 0.468 µM·h were found for `OC[C@H]1O[C@@H](c2ccc(Cl)c(Cc3ccc(O[C@H]4CCOC4)cc3)c2)[C@H](O)[C@@H](O)[C@@H]1O` [Compound (I.9), 1-chloro-4-(β-D-glucopyranos-1-yl)-2-[4-((S)-tetrahydrofuran-3-yloxy)-benzyl]-benzene] in this work. For the same molecule, the Cmax (2.5 mg, dose of 2.5 mg, read-out: geometric mean Cmax) was 52.9 to 66.6 nM, the AUC (2.5 mg, multiple doses of 2.5 mg, read-out: AUCτ,ss) was 0.283 to 0.677 µM·h and the Cmax (2.5 mg, multiple doses of 2.5 mg, read-out: Cmax,ss) was 40.3 to 96.3 nM. It also gave an AUC(0-inf) (2.5 mg, single dose of 2.5 mg, read-out: AUC0-inf) of 0.326 to 0.631 µM·h, a Cmax (2.5 mg, single dose of 2.5 mg, read-out: Cmax) of 42.8 to 81.2 nM and an AUC(0-inf) (2.5 mg, single dose of 2.5 mg, read-out: geometric mean AUC0-inf) of 0.394 to 0.468 µM·h. The Cmax (2.5 mg, single dose of 2.5 mg, read-out: geometric mean Cmax) was 52.9 to 61.3 nM, the AUC (5 mg, dose of 5.0 mg, read-out: AUC) was 1 to 1.31 µM·h and the Cmax (5 mg, dose of 5.0 mg, read-out: Cmax) was 123 to 230 nM. For the same molecule, the AUC(0-inf) (5 mg, single dose of 5.0 mg, read-out: AUC0-inf) was 1 to 1.31 µM·h, the Cmax (5 mg, single dose of 5.0 mg, read-out: Cmax) was 123 to 230 nM and the AUC (10 mg, dose of 10.0 mg, read-out: AUC) was 1.17 to 3.19 µM·h. It also gave a Cmax (10 mg, dose of 10.0 mg, read-out: Cmax) of 143 to 796 nM, an AUC (10 mg, dose of 10.0 mg, read-out: geometric mean AUC) of 1.69 to 2.66 µM·h and a Cmax (10 mg, dose of 10.0 mg, read-out: geometric mean Cmax) of 221 to 372 nM. The AUC (10 mg, multiple doses of 10.0 mg, read-out: AUCτ,ss) was 1.35 to 2.6 µM·h, the Cmax (10 mg, multiple doses of 10.0 mg, read-out: Cmax,ss) was 166 to 479 nM and the AUC (10 mg, multiple doses of 10.0 mg, read-out: geometric mean AUCτ,ss) was 1.85 to 2 µM·h. The Cmax (10 mg, multiple doses of 10.0 mg, read-out: geometric mean Cmax,ss) was 252 to 272 nM, the AUC(0-inf) (10 mg, single dose of 10.0 mg, read-out: AUC0-inf) was 1.17 to 3.19 µM·h and the Cmax (10 mg, single dose of 10.0 mg, read-out: Cmax) was 143 to 796 nM. The AUC(0-inf) (10 mg, single dose of 10.0 mg, read-out: geometric mean AUC0-inf) was 1.69 to 2.66 µM·h, the Cmax (10 mg, single dose of 10.0 mg, read-out: geometric mean Cmax) was 221 to 372 nM and the AUC (25 mg, dose of 25.0 mg, read-out: AUC) was 2.66 to 7.64 µM·h. It also gave a Cmax (25 mg, dose of 25.0 mg, read-out: Cmax) of 334 to 1030 nM, an AUC (25 mg, dose of 25.0 mg, read-out: geometric mean AUC) of 3.75 to 6.13 µM·h and a Cmax (25 mg, dose of 25.0 mg, read-out: geometric mean Cmax) of 490 to 709 nM. The AUC (25 mg, multiple doses of 25.0 mg, read-out: AUCτ,ss) was 2.79 to 7.64 µM·h, the Cmax (25 mg, multiple doses of 25.0 mg, read-out: Cmax,ss) was 443 to 907 nM and the AUC (25 mg, multiple doses of 25.0 mg, read-out: geometric mean AUCτ,ss) was 4.64 to 4.89 µM·h. The Cmax (25 mg, multiple doses of 25.0 mg, read-out: geometric mean Cmax,ss) was 622 to 676 nM, the AUC(0-inf) (25 mg, single dose of 25.0 mg, read-out: AUC0-inf) was 2.66 to 7.17 µM·h and the Cmax (25 mg, single dose of 25.0 mg, read-out: Cmax) was 334 to 1030 nM. For the same molecule, the AUC(0-inf) (25 mg, single dose of 25.0 mg, read-out: geometric mean AUC0-inf) was 3.75 to 6.13 µM·h, the Cmax (25 mg, single dose of 25.0 mg, read-out: geometric mean Cmax) was 490 to 709 nM and the AUC (50 mg, dose of 50.0 mg, read-out: AUC) was 6.45 to 14.1 µM·h. For the same molecule, the Cmax (50 mg, dose of 50.0 mg, read-out: Cmax) was 722 to 2020 nM, the AUC (50 mg, dose of 50.0 mg, read-out: geometric mean AUC) was 8.31 to 8.46 µM·h and the Cmax (50 mg, dose of 50.0 mg, read-out: geometric mean Cmax) was 1080 to 1140 nM. It also gave an AUC(0-inf) (50 mg, single dose of 50.0 mg, read-out: AUC0-inf) of 6.45 to 14.1 µM·h, a Cmax (50 mg, single dose of 50.0 mg, read-out: Cmax) of 722 to 2020 nM and an AUC(0-inf) (50 mg, single dose of 50.0 mg, read-out: geometric mean AUC0-inf) of 8.31 to 8.46 µM·h. For the same molecule, the Cmax (50 mg, single dose of 50.0 mg, read-out: geometric mean Cmax) was 1080 to 1140 nM.
